Earlier results in patent US11827443B2, “Aerosol foam dispenser” (The Procter & Gamble Company, priority 2021, dated 2023).

Conditions: in water at 20° C.

Row | Water solubility at 20° C. (weight percent) | Compound
1 | 0.8% weight percent | O=C=O [Carbon dioxide]
2 | 7% weight percent | COC [Dimethyl ether]
3 | <0.01% weight percent | CC(C)C [Isobutane]
4 | 0.12 weight percent | [N-]=[N+]=O [Nitrous oxide]

Row | Compound | Water solubility at 20° C. (weight percent)
5 | CCCC [Butane] | <0.01% weight percent
6 | [He] [Helium] | <0.01 weight percent
